The text below walks through data of patent US20040266862A1, “Method of improving animal tissue quality by supplementing the animal diet with mixed tocotrienols” (priority 2003, published 2004).

Marks after values point to notes of the source that are not given here.

Common to all, as to assay type: in vivo
In assay [1] the test system is cattle. As to the kind of experiment: 2002-03 cattle feed test: sensory characteristics of cooked ribeye steaks. To be noted: freshly cooked ribeye steaks; scale of 1 to 8; 300 ppm in diet. From the text: (§1) Applicants also assessed the effects of antioxidant supplementation on beef quality in an experiment in which ground beef and steaks from cattle fed one of four dietary treatments were compared. Forty steers (average weight 1082 lbs.) were blocked by weight (heavy or light) and assigned to eight outdoor group pens. Pens were randomly assigned within weight blocks to four dietary treatments (two pens per dietary treatment): control, 300 ppm gamma-tocopherol, 150 ppm MT or 300 ppm MT. As in the swine and poultry feed trials, the MT supplement was obtained commercially from Fuji Chemical Industries (U.S.A.) Inc. of Robbinsville, N.J., and contained 7.5% alpha-, 12.3% gamma- and 3.0% delta-tocotrienol for a total MT content of 22.8 wt %, as well as 7.2% alpha-tocopherol. The control diet was not supplemented with even the NRC (1996) recommended level of vitamin E (15 to 60 ppm).
(§2) The steers were fed rolled corn diets with added cottonseed hulls that contained little or no vitamin E. The corn grain used in this trial was more than two years old so that it would be largely depleted of vitamin E. The steers were gradually adapted to an 80% grain-based diet and fed the low vitamin E diet for over one month prior to the start of the dietary supplementation period. Steers then were fed their respective dietary treatments for 54 days, starting Dec. 18, 2002 and ending Feb. 10, 2003.
(§3) The dietary treatments were top-dressed onto the feed and mixed with the morning daily feed. The target level for feeding gamma-tocopherol was calculated to be 2 g per animal per day. Mineral oil was used as a carrier for the gamma-tocopherol. The two target amounts of mixed tocotrienols were equivalent to, or half of, the gamma tocopherol level. The MT compounds were diluted with cornmeal to supply the required amount of mixed tocotrienols.
(§4) On the day following delivery of the beef rib sections to Kansas State University, ribs were boned out, vacuum packaged, and held at approximately (2° C.) until thirteen days postmortem, at which time the ribs were faced at the 13th rib region. The ribs were cut into 2.54 cm thick ribeye steaks, one steak from each rib to be used for color appraisal under retail display conditions and one steak for sensory evaluation. The steaks for sensory evaluation were vacuum-packaged and frozen.
The frozen ribeye steaks designated for sensory evaluation were thawed for >24 hours at 3-4° C. and cooked in a Blodgett oven set at 163° C. The steaks were turned at 40° C. and removed from the oven at 70° C. The cooked steaks were cut into 2.54 cm×1.25 cm×1.25 cm cubes. The cubes were placed in double boilers and held warm on burners set at 107° C. until serving. Each panelist received two cubes in random order with a maximum of eight samples per session. An eight-point scale with 0.5 increments was used to score sensory attributes, with 8 being most tender, flavorful, or juicy and 1 being the least tender, flavorful, or juicy.

Assay [2] deals with cattle. The experiment in a line: 2002-03 cattle feed test: raw ribeye steak Hunter Lab color evaluation.
Description: as §1, §2, §3, §4
(§5) The ribeye steaks utilized for color evaluation were placed onto 17S foam trays with meat, fish, and poultry pads (Dri-Loc AC-50) and wrapped with polyvinyl chloride film. The packaged steaks were placed under simulated retail display at 34±3° F. under 1614 lux (150±5 foot candles) light intensity in open-top display cases. The cases were programmed to defrost twice daily at 12-hour intervals. Case temperature was monitored using temperature recorders. An eight-member trained panel assigned subjective color and discoloration scores on days 0, 1, 2, 3, 4, 5 and 7. Pre-storage color was evaluated on an eight point scale. Panelists evaluated post-13 day storage color using a five-point scale with 0.5 intervals. Minolta color measurements were taken on days 0 and 7 using a Hunter Lab MiniScan™ Spectrophotometer (1.25 inch diameter aperture).

Assay [3] has as its system cattle. The experiment in a line: 2002-03 cattle feed test: TBARS content of raw ribeye steaks. To be noted: 300 ppm in diet.
Description: as §1, with “The control diet was not supplemented with even the NRC (1996) recommended level of vitamin E (15 to 60 ppm).” left out
(§6) The dietary treatments were top-dressed onto the feed and mixed with the morning daily feed. The target level for feeding gamma-tocopherol was calculated to be 2 g per animal per day. […]
The ribeye steaks utilized for color evaluation were placed onto 17S foam trays with meat, fish, and poultry pads (Dri-Loc AC-50) and wrapped with polyvinyl chloride film. […] Case temperature was monitored using temperature recorders. […] Pre-storage color was evaluated on an eight point scale. Panelists evaluated post-13 day storage color using a five-point scale with 0.5 intervals. […]

Assay [4] deals with cattle. The experiment in a line: 2002-03 cattle feed test: raw ribeye steak subjective color. Particulars: 300 ppm in diet.
Description: as §1, §2, §3, §4, §5

In assay [5] the test system is cattle. As to the kind of experiment: 2002-03 cattle feed test: moisture, fat and TBARS content of raw ground beef patties. To be noted: 300 ppm in diet.
Description: as §1, with “ppm). […]” for “ppm).”
as §6
Four pounds of lean and one pound of fat were harvested from each steer and mixed to produce ground beef patties with a targeted fat content of 20%. […] The pre- and post-display ground beef patties were analyzed for oxidative stability by determining their TBARS concentration.

On to `Cc1c(O)cc2c(c1C)O[C@](C)(CCC[C@H](C)CCC[C@H](C)CCCC(C)C)CC2` [GT, gamma-tocopherol], for which the Flavor intensity in the assay on cattle [1] was 5.9. In addition, in the assay with cattle [1], the Juiciness was 5.7. Further, the Off-flavor intensity in the assay with cattle [1] is 7.7. Besides, in the assay on cattle [1], the Overall tenderness was 6.1^a. The Warmed over flavor in the assay on cattle [1] is on record as 8.0. In the assay on cattle [2] (300 ppm in diet), the “Pre-display pH” value is 5.53. Also, the “Hunter L” value with cattle [2] (display Day 0, 300 ppm in diet) is on record as 41.35; in the assay with cattle [2] (display Day 7, 300 ppm in diet), 40.03^b. Further, the Hunter a in the assay on cattle [2] (display Day 0, 300 ppm in diet) is reported as 32.82; in the assay with cattle [2] (display Day 7, 300 ppm in diet), 30.26^b. The Hunter b with cattle [2] (display Day 0, 300 ppm in diet) is 25.33; with cattle [2] (display Day 7, 300 ppm in diet) it was 23.35^b. The TBARS content was 0.411^b Mg Malonaldehyde/1000 g steak in the assay on cattle [3] (Post-display), 0.076 Mg Malonaldehyde/1000 g steak with cattle [3] (Pre-display), 0.663^ab Mg Malonaldehyde/1000 g ground beef in the assay on cattle [5] (Post-display (5 days retail display)) and 0.173 Mg Malonaldehyde/1000 g ground beef with cattle [5] (Pre-display). Moreover, the subjective color score in the assay with cattle [4] (Pre-storage, eight point scale (1.0 = Bleached red, 8.0 = Very dark red)) was 4.34; with cattle [4] (post-13 day storage, display Day 0, five-point scale (1.0 = Very bright cherry red, 5.0 = Very dark red/purple to brown)), 2.19; with cattle [4] (post-13 day storage, display Day 1, five-point scale), 2.28; in the assay with cattle [4] (post-13 day storage, display Day 2, five-point scale) it was 2.29; in the assay on cattle [4] (post-13 day storage, display Day 3, five-point scale), 2.61; in the assay with cattle [4] (post-13 day storage, display Day 4, five-point scale), 2.80^b. Also, the subjective color score was 3.02^b in the assay on cattle [4] (post-13 day storage, display Day 5, five-point scale) and 3.29^b in the assay with cattle [4] (post-13 day storage, display Day 7, five-point scale).
